Counter-ions that a name gives are not always drawn.
Assays:
CDK2/cyclin A = molecular target: T1, CDK2/cyclin A (Homo sapiens, UniProt P24941); assay: Inhibition of CDK2/cyclin A retinoblastoma kinase activity (Ki; % inhibition); type: biochemical; conditions: for Ki: apparent Ki, CDK2/cyclin A, Rb substrate
T1 construct: made in house; host or cells: CDK2: insect cells (baculovirus); cyclin A: E. coli
Procedure, shortened: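 Apparent Ki values came from fitting concentration-dependent activity data to competitive (or competitive tight-binding) models, and % inhibition from single 30 nM screens of library compounds. Activity was measured as ³²P/³³P incorporation from 25 μM ATP into an Rb substrate by 10 or 19 nM CDK2/delta cyclin A at 30 °C over 60–75 min, pH 7.4.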

HCT-116 cell line = assay: Inhibition of cell growth, MTT tetrazolium salt assay; type: cell-based; conditions: for IC50: Homo sapiens, HCT-116, 120 h, MTT, three to five days
Procedure, shortened: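 Cells in McCoy's 5A medium were given 4 h before compound addition in 0.5% (v/v) DMSO, then incubated 3–5 days at 37 °C, 5% CO2. After 4 h with 0.2 mg/mL MTT, DMSO-solubilized formazan was read at 540 nm; 50% and 90% growth-inhibitory concentrations came from semi-log plots against vehicle controls.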

human CDK4/cyclin D3 = molecular target: T2, human CDK4/cyclin D3 (Homo sapiens, UniProt P11802); assay: Inhibition of CDK4/cyclin D retinoblastoma kinase activity (Ki; % inhibition); type: biochemical; conditions: for Ki: apparent Ki, CDK4/cyclin D3, Rb substrate
T2 construct: made in house; host or cells: insect cells co-infected with baculovirus vectors
Procedure, shortened: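 Radiometric filter-binding read-out: Rb residues 386-928 phosphorylated by 5 nM CDK4/cyclin D3(1-264) from baculovirus-infected insect cells, 25 μM ATP, HEPES pH 7.4, 30 °C. Run 20 min, or 60 min for tight-binding inhibitors. Screening at 30 nM theoretical compound; apparent Ki by competitive-inhibition fitting.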

[1] = HCT-116 cells, 0.25 μM compound

T2 sequence (P11802 whole entry): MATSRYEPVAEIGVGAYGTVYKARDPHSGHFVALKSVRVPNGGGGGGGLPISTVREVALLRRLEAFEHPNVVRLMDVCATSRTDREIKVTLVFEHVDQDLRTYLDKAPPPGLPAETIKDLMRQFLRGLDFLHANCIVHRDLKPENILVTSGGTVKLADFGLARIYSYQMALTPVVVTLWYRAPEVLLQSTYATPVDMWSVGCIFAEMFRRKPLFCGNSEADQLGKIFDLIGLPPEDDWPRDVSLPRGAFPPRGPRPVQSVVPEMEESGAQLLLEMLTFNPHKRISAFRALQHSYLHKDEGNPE
T2 sequence (P30281 1-264 partner limits assumed): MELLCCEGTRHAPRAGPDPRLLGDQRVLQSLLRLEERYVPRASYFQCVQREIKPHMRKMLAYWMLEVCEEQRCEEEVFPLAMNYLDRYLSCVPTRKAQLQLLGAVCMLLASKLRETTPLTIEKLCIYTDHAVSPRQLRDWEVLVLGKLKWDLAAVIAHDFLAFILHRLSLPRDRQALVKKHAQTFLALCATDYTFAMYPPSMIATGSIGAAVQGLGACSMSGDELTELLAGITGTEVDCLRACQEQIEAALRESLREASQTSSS

Row | Structure (SMILES) | CDK2 % Inhibition at 0.03 μM (CDK2/cyclin A; 0.03 μM compound) [%] | CDK4 % Inhibition at 0.03 μM (human CDK4/cyclin D3; 0.03 μM compound) [%] | HCT-116 % Inhibition at 0.1 μM (HCT-116 cell line; HCT-116 cells, 0.1 μM compound) [%] | HCT-116 % Inhibition at 0.25 μM (HCT-116 cell line; [1]) [%] | further results
1 | CNC(C)(C)CNC(=O)c1ccc(Nc2nc(N)c(C(=O)c3c(F)cccc3F)s2)cc1 [Example A18, 4-{4-Amino-5-[1-(2,6-difluoro-phenyl)-methanoyl]-thiazol-2-ylamino}-N-(2-methyl-2-methylamino-propyl)-benzamide Acetic Acid Salt] | – | – | – | – | Ki (CDK2/cyclin A): 190 nM; IC50 (HCT-116 cell line): 920 nM; Ki (human CDK4/cyclin D3): 6 nM
2 | Nc1nc(Nc2ccc(C(=O)Nc3ccc4c(c3)S(=O)(=O)NC4=O)cc2)sc1C(=O)c1c(F)cccc1F [Example G101] | – | – | – | – | CDK2 % Inhibition at 0.03 μM (CDK2/cyclin A; at 0.03 μM): 11%; HCT-116 % Inhibition at 0.1 μM (HCT-116 cell line; HCT-116, at 0.1 μM): 10%; HCT-116 % Inhibition at 0.25 μM (HCT-116 cell line; HCT-116, at 0.25 μM): 46%; CDK4 % Inhibition at 0.03 μM (human CDK4/cyclin D3; at 0.03 μM): 19%
3 | Nc1nc(Nc2ccc(C(=O)N3CCN(Cc4ccc5c(c4)OCO5)CC3)cc2)sc1C(=O)c1c(F)cccc1F [Example G62] | – | – | – | – | CDK2 % Inhibition at 0.03 μM (CDK2/cyclin A; at 0.03 μM): 7%; HCT-116 % Inhibition at 0.25 μM (HCT-116 cell line; HCT-116, at 0.25 μM): 50%; CDK4 % Inhibition at 0.03 μM (human CDK4/cyclin D3; at 0.03 μM): 22%
4 | Nc1nc(Nc2ccc(C(=O)NCCc3ccccc3)cc2)sc1C(=O)c1c(F)cccc1F [Example G91] | – | – | – | – | CDK2 % Inhibition at 0.03 μM (CDK2/cyclin A; at 0.03 μM): −19%; HCT-116 % Inhibition at 0.1 μM (HCT-116 cell line; HCT-116, at 0.1 μM): 34%; HCT-116 % Inhibition at 0.25 μM (HCT-116 cell line; HCT-116, at 0.25 μM): 68%; CDK4 % Inhibition at 0.03 μM (human CDK4/cyclin D3; at 0.03 μM): 9%
5 | Cc1ccc(CNC(=O)c2ccc(Nc3nc(N)c(C(=O)c4c(F)cccc4F)s3)cc2)o1 [Example A6, 4-[4-Amino-5-(2,6-difluoro-benzoyl)-thiazol-2-ylamino]-N-(5-methyl-furan-2-ylmethyl)-benzamide] | – | – | – | – | Ki (CDK2/cyclin A): 7.5 nM; IC50 (HCT-116 cell line): 220 nM; Ki (human CDK4/cyclin D3): 15 nM
6 | CCC(C)NC(=O)c1ccc(Nc2nc(N)c(C(=O)c3c(F)cccc3F)s2)cc1 (centres unmarked) [Example G148] | – | – | – | – | CDK2 % Inhibition at 0.03 μM (CDK2/cyclin A; at 0.03 μM): 5%; HCT-116 % Inhibition at 0.1 μM (HCT-116 cell line; HCT-116, at 0.1 μM): 0%; HCT-116 % Inhibition at 0.25 μM (HCT-116 cell line; HCT-116, at 0.25 μM): 48%; CDK4 % Inhibition at 0.03 μM (human CDK4/cyclin D3; at 0.03 μM): 14%
7 | CC(NC(=O)c1ccc(Nc2nc(N)c(C(=O)c3c(F)cccc3F)s2)cc1)C1CCCCC1 (centres unmarked) [Example G300] | – | – | – | – | CDK2 % Inhibition at 0.03 μM (CDK2/cyclin A; 0.03 μM compound, 0.03 µM): −18%; HCT-116 % Inhibition at 0.1 μM (HCT-116 cell line; HCT-116 cells, 0.1 μM compound, 0.1 µM): 18%; HCT-116 % Inhibition at 0.25 μM (HCT-116 cell line; HCT-116 cells, 0.25 μM compound, 0.25 µM): 70%; CDK4 % Inhibition at 0.03 μM (human CDK4/cyclin D3; 0.03 μM compound, 0.03 µM): −10%
8 | CN1[C@@H]2CC[C@@H](C2)[C@@H]1CNC(=O)c1ccc(Nc2nc(N)c(C(=O)c3c(F)cccc3F)s2)cc1 (relative stereo) [Example A76, 4-[4-Amino-5-(2,6-difluoro-benzoyl)-thiazol-2-ylamino]-N-(2-methyl-2-aza-bicyclo[2.2.1]hept-3-endo-ylmethyl)-benzamide] | – | – | – | – | Ki (CDK2/cyclin A): 15 nM; IC50 (HCT-116 cell line): 1100 nM; Ki (human CDK4/cyclin D3): 120 nM
9 | Cc1ccc(NC(=O)c2ccc(Nc3nc(N)c(C(=O)c4c(F)cccc4F)s3)cc2)cc1Cl [Example G8] | – | – | – | – | CDK2 % Inhibition at 0.03 μM (CDK2/cyclin A; at 0.03 μM): −1%; HCT-116 % Inhibition at 0.25 μM (HCT-116 cell line; HCT-116, at 0.25 μM): 50%; CDK4 % Inhibition at 0.03 μM (human CDK4/cyclin D3; at 0.03 μM): −5%
10 | CCCC(C)NC(=O)c1ccc(Nc2nc(N)c(C(=O)c3c(F)cccc3F)s2)cc1 (centres unmarked) [Example G163] | – | – | – | – | CDK2 % Inhibition at 0.03 μM (CDK2/cyclin A; at 0.03 μM): 16%; HCT-116 % Inhibition at 0.1 μM (HCT-116 cell line; HCT-116, at 0.1 μM): 0%; HCT-116 % Inhibition at 0.25 μM (HCT-116 cell line; HCT-116, at 0.25 μM): 67%; CDK4 % Inhibition at 0.03 μM (human CDK4/cyclin D3; at 0.03 μM): 21%
11 | C=CCN(C)C(=O)c1ccc(Nc2nc(N)c(C(=O)c3c(F)cccc3F)s2)cc1 [Example G27] | – | – | – | – | CDK2 % Inhibition at 0.03 μM (CDK2/cyclin A; at 0.03 μM): −6%; HCT-116 % Inhibition at 0.25 μM (HCT-116 cell line; HCT-116, at 0.25 μM): 60%; CDK4 % Inhibition at 0.03 μM (human CDK4/cyclin D3; at 0.03 μM): 4%
12 | CC(C)CNC(=O)c1ccc(Nc2nc(N)c(C(=O)c3c(F)cccc3F)s2)cc1 [Example G126] | – | – | – | – | CDK2 % Inhibition at 0.03 μM (CDK2/cyclin A; at 0.03 μM): 3%; HCT-116 % Inhibition at 0.1 μM (HCT-116 cell line; HCT-116, at 0.1 μM): 0%; HCT-116 % Inhibition at 0.25 μM (HCT-116 cell line; HCT-116, at 0.25 μM): 53%; CDK4 % Inhibition at 0.03 μM (human CDK4/cyclin D3; at 0.03 μM): 7%
13 | Cc1ccsc1C(=O)c1sc(Nc2ccc(C(=O)N[C@H](C)CN(C)C)cc2)nc1N [Example A62, 4-{4-Amino-5-[1-(3-methyl-thiophen-2-yl)-methanoyl]-thiazol-2-ylamino}-N-(2-dimethylamino-1R-methyl-ethyl)-benzamide Trifluoroacetic Acid Salt] | – | – | – | – | Ki (CDK2/cyclin A): 2.8 nM; IC50 (HCT-116 cell line): 44 nM; Ki (human CDK4/cyclin D3): 120 nM
14 | Cn1cncc1CNC(=O)c1ccc(Nc2nc(N)c(C(=O)c3c(F)cccc3F)s2)cc1 [Example A64, 4-[4-Amino-5-(2,6-difluoro-benzoyl)-thiazol-2-ylamino]-N-(1-methylimidazol-5-yl-methyl)-benzamide] | – | – | – | – | Ki (CDK2/cyclin A): 19 nM; IC50 (HCT-116 cell line): > 5000 nM; Ki (human CDK4/cyclin D3): 22 nM
15 | CCOC(=O)c1cccc(NC(=O)c2ccc(Nc3nc(N)c(C(=O)c4c(F)cccc4F)s3)cc2)c1 [Example G24] | – | – | – | – | CDK2 % Inhibition at 0.03 μM (CDK2/cyclin A; at 0.03 μM): 7%; HCT-116 % Inhibition at 0.25 μM (HCT-116 cell line; HCT-116, at 0.25 μM): 58%; CDK4 % Inhibition at 0.03 μM (human CDK4/cyclin D3; at 0.03 μM): 11%

Further lines, with some results ahead:

Row | CDK2 % Inhibition at 0.03 μM (CDK2/cyclin A; 0.03 μM compound) [%] | CDK4 % Inhibition at 0.03 μM (human CDK4/cyclin D3; 0.03 μM compound) [%] | Structure (SMILES) | HCT-116 % Inhibition at 0.1 μM (HCT-116 cell line; HCT-116 cells, 0.1 μM compound) [%] | HCT-116 % Inhibition at 0.25 μM (HCT-116 cell line; [1]) [%] | further results
16 | 31 | 27 | Cc1ccc(CNC(=O)c2ccc(Nc3nc(N)c(C(=O)c4c(F)cccc4F)s3)cc2)cc1C [Example G338] | 18 | 54 | –
17 | −10 | 13 | CCN(CC)CCN1CCN(C(=O)c2ccc(Nc3nc(N)c(C(=O)c4c(F)cccc4F)s3)cc2)CC1 [Example G374] | 21 | 41 | –
18 | −1 | 12 | Cc1cc(NC(=O)c2ccc(Nc3nc(N)c(C(=O)c4c(F)cccc4F)s3)cc2)ccc1F [Example G330] | 2 | 55 | –
19 | 0 | 7 | Nc1nc(Nc2ccc(C(=O)NCCc3ccc(Cl)cc3)cc2)sc1C(=O)c1c(F)cccc1F [Example G266] | 28 | 30 | –
20 | 35 | 11 | Nc1nc(Nc2ccc(C(=O)Nc3ccc(O)c(Cl)c3)cc2)sc1C(=O)c1c(F)cccc1F [Example G394] | 14 | 73 | –
21 | 2 | −2 | Nc1nc(Nc2ccc(C(=O)NCCc3cccc(C(F)(F)F)c3)cc2)sc1C(=O)c1c(F)cccc1F [Example G276] | 25 | 58 | –
22 | 1 | 28 | COc1cc(CNC(=O)c2ccc(Nc3nc(N)c(C(=O)c4c(F)cccc4F)s3)cc2)cc(OC)c1 [Example G262] | 24 | 59 | –
23 | 36 | 41 | CN(CC(O)c1ccccc1)C(=O)c1ccc(Nc2nc(N)c(C(=O)c3c(F)cccc3F)s2)cc1 (centres unmarked) [Example G225] | 0 | 51 | –
24 | 0 | 22 | CN(CCC#N)C(=O)c1ccc(Nc2nc(N)c(C(=O)c3c(F)cccc3F)s2)cc1 [Example G296] | 0 | 43 | –
25 | 13 | 8 | Nc1nc(Nc2ccc(C(=O)N(CCO)Cc3ccccc3)cc2)sc1C(=O)c1c(F)cccc1F [Example G379] | 31 | 54 | –
26 | 17 | 29 | Nc1nc(Nc2ccc(C(=O)NCc3ccc(F)c(C(F)(F)F)c3)cc2)sc1C(=O)c1c(F)cccc1F [Example G302] | 17 | 63 | –
27 | 13 | 15 | COc1ccc(NC(=O)c2ccc(Nc3nc(N)c(C(=O)c4c(F)cccc4F)s3)cc2)cc1F [Example G347] | 21 | 53 | –
28 | −12 | 11 | Nc1nc(Nc2ccc(C(=O)NCCCCO)cc2)sc1C(=O)c1c(F)cccc1F [Example G256] | 19 | 49 | –
29 | −11 | 10 | Nc1nc(Nc2ccc(C(=O)Nc3ccc(Cl)cc3CO)cc2)sc1C(=O)c1c(F)cccc1F [Example G341] | 23 | 93 | –
30 | 11 | 12 | CCOc1ccc(NC(=O)c2ccc(Nc3nc(N)c(C(=O)c4c(F)cccc4F)s3)cc2)cc1 [Example G313] | 10 | 57 | –
31 | 23 | 25 | Nc1nc(Nc2ccc(C(=O)NCc3cc(Cl)ccc3Cl)cc2)sc1C(=O)c1c(F)cccc1F [Example G286] | 10 | 60 | –
32 | 25 | 18 | CCOC(CNC(=O)c1ccc(Nc2nc(N)c(C(=O)c3c(F)cccc3F)s2)cc1)OCC [Example G344] | 24 | 50 | –

Reference: patent publication US6720346B2, “Thiazole benzamide derivatives and pharmaceutical compositions for inhibiting cell proliferation” (Agouron Pharmaceuticals, Inc., priority 2001, dated 2004)
